This assay concerns Puccinia recondita. Kind of assay: Control of brown rust on wheat caused by Puccinia recondita (greenhouse, comparative). The assay is classed as in vivo. The note with it: 500 ppm spray to run-off one day before inoculation; % diseased leaf area, visually assessed; untreated control 90. The protocol: The spray solutions were prepared in several steps:
The stock solution were prepared: a mixture of acetone and/or dimethylsulfoxide and the wetting agent/emulsifier Wettol, which is based on ethoxylated alkylphenoles, in a relation (volume) solvent-emulsifier of 99 to 1 was added to 25 mg of the compound to give a total of 5 ml. Water was then added to total volume of 100 ml.
This stock solution was diluted with the described solvent-emulsifier-water mixture to the given concentration.
The first two developed leaves of pot-grown wheat seedling were sprayed to run-off with an aqueous suspension, containing 500 ppm of active ingredient as described below. The next day the plants were inoculated with spores of Puccinia recondita. To ensure the success the artificial inoculation, the plants were transferred to a humid chamber without light and a relative humidity of 95 to 99% and 20 to 24° C. for 24 h. Then the trial plants were cultivated for 6 days in a greenhouse chamber at 20-24° C. and a relative humidity between 65 and 70%. The extent of fungal attack on the leaves was visually assessed as % diseased leaf area.

Take `Cn1c(=O)c2sc3c(=O)n(C)c(=O)c3sc2c1=O`: the “Disease level (%)” value was found to be 80%.

As for `COn1c(=O)c2sc3c(=O)n(OC)c(=O)c3sc2c1=O` [I-2, 2.6-Dimethoxy-1H.5H-[1.4]dithiino[2,3-c:5.6-c′]dipyrrol-1.3.5.7(2H.6H)tetrone], the “Disease level (%)” value worked out at 45%.

The record behind these values is US9253980B2 (priority 2011, dated 2016).
